# Assay results taken from ChEMBL document CHEMBL4184230, “Design, synthesis and biological evaluation of novel pyrazolo-oxothiazolidine derivatives as antiproliferative agents against human lung cancer cell line A549” (Bioorg Med Chem Lett, 2018).
# Tested on: A549
# Assay: Antiproliferative activity against human A549 cells incubated for 96 hrs by MTT assay
# Format: functional, cell-based
# Conditions: A549, 96 h
row,Compound,IC50 [µg/mL]
1,CCOC(=O)/C=C1/SC(N2N=C(c3cc4ccccc4o3)CC2c2ccc(F)cc2)=NC1=O (stereo unspecified),0.93
2,CNC(=O)c1cc(Oc2ccc(NC(=O)Nc3ccc(Cl)c(C(F)(F)F)c3)cc2)ccn1 [SORAFENIB],3.78
3,COC(=O)/C=C1/SC(N2N=C(c3cc4ccccc4o3)CC2c2ccc(OC)c(OC)c2)=NC1=O (stereo unspecified),0.967
4,CCOC(=O)/C=C1/SC(N2N=C(c3cc4ccccc4o3)CC2c2ccc(OC)cc2)=NC1=O (stereo unspecified),1.21
5,CCOC(=O)/C=C1/SC(N2N=C(c3cc4ccccc4o3)CC2c2cccc(Br)c2)=NC1=O (stereo unspecified),> 5
6,CCOC(=O)/C=C1/SC(N2N=C(c3cc4ccccc4o3)CC2c2ccc(OC)c(OC)c2)=NC1=O (stereo unspecified),3.42

# Continued, values first:
row,IC50 [µg/mL],Compound
1,1.08,COC(=O)/C=C1/SC(N2N=C(c3cc4ccccc4o3)CC2c2ccc(Cl)cc2)=NC1=O (stereo unspecified)
2,4.29,COC(=O)/C=C1/SC(N2N=C(c3cc4ccccc4o3)CC2c2cccc(Br)c2)=NC1=O (stereo unspecified)
3,0.808,COC(=O)/C=C1/SC(N2N=C(c3cc4ccccc4o3)CC2c2ccc(F)cc2)=NC1=O (stereo unspecified)
4,> 5,CCOC(=O)/C=C1/SC(N2N=C(c3cc4ccccc4o3)CC2c2ccc(Cl)cc2)=NC1=O (stereo unspecified)
5,2.44,COC(=O)/C=C1/SC(N2N=C(c3cc4ccccc4o3)CC2c2ccc(OC)cc2)=NC1=O (stereo unspecified)
